In data set [1] the test system is IMR-32. Briefly: Metabolic activity assay (CellTiter-Glo). The format is cell-based. The settings on record: for IC50: IMR-32. On the procedure: (§1) If not otherwise declared, cells were precultured for 72 h at a density of 2,000,000 cells per T75 flask (exceptions: Kelly, NB1 and IMR-32 4,000,000 per T75 flask, SJ-GBM2 1,000,000 per T75 flask). Cells were detached with trypsin-EDTA (ThermoFisher Scientific) and seeded in 96-well plates (Greiner, Microplate, 96-Well, PS, F-bottom µCLEAR®, CELLSTAR®) in 100 µl medium per well at a density of 5,000 (KNS-42, SJ-GBM2, SF188, SK-N-BE(2)-C) or 10,000 (IMR-32, NB1, Kelly) cells/well. HDAC-inhibitor screenings were performed accordingly in 384-well plates (Greiner, Microplate, 384-Well, PS, F-bottom µCLEAR®, CELLSTAR®) in 20 µl medium per well at a density of 1,250 (SK-N-BE(2)-C, SK-N-AS) or 2,500 (IMR-32) cells/well. To avoid edge effects, margin wells (row A and H, column 1 and 12) contained PBS or medium and medium-containing wells were used as background controls. After 24 h incubation, cells were treated for 72 h. Drugs were applied using a Tecan D300e drug printer. Cell viability was quantified using CellTiter-Glo® 2.0 kit (Promega, Madison, USA). 50 µl CellTiter-Glo® (96-well) or 25 µl CellTiter-Glo® (384-well) were added to every well, the plates were shaken at 400 rpm for 5 min and were then incubated for another 10 min. Bioluminescence was quantified on an OPTIMA plate reader (BMG Labtech, Ortenberg, Germany).
(§2) All cell culture experiments were performed in triplicate. A two-tailed t-test, unpaired or paired, or ANOVA where appropriate, were performed using software program R (R version 3.2.2, 2015; The R Foundation for Statistical Computing). The packages tidyverse, janitor, readxl, writxl, ROCR, ggplot2 and ggsignif were used to calculate and plot the data. P-values of less than 0.05 were considered significant (^∗p < 0.05, ^∗∗p < 0.01, ^∗∗∗p < 0.001). IC50 values were calculated using GraphPad Prism Version 9.1.0 (GraphPad Software). Synergistic interactions were analyzed with SynergyFinder using the HSA (highest single agent) reference model, as the assumptions of other models were not fulfilled.

Data set [2] concerns SK-N-BE(2)-C. Description: Metabolic activity assay (CellTiter-Glo). The format is cell-based. The settings on record: for IC50: SK-N-BE(2)-C. On the procedure:
as §1, §2
On the technique in general: In ATP-based viability assays light output follows the ATP content of the culture.

Data set [3] relates to SF188. Description: Metabolic activity assay (CellTiter-Glo). It counts as cell-based. The settings on record: doxorubicin combined with APR-246. On the procedure:
as §1, §2

For data set [4], the system named is SJ-GBM2. Briefly: Metabolic activity assay (CellTiter-Glo). Conditions: doxorubicin combined with APR-246. The format is cell-based. On the procedure:
as §1, §2

Data set [5] concerns p53 target genes CDKN1A, PUMA and GADD45A. Description: Real-time PCR of p53 pathway activation in IMR-32. It counts as cell-based. Conditions: IMR-32 (TP53-wt), doxorubicin single-treatment, 24 h. On the procedure:
(§3) Real-time PCR was performed as described previously (Fischer et al., J Mol Diagn 2005, 7, 89-96; Witt et al., Blood 2003, 101, 2001-2007). The following primers were purchased from ThermoFisher Scientific: CDKN1A (p21^WAF1/^CIP1, forward: 5'-TGGAGACTCTCAGGGTCGAAA-3'(SEQ ID NO:1), reverse: 5'-GGCGTTTGGAGTGGTAGAAATC-3'(SEQ ID NO.2)), HPRT (forward: 5'-TGACACTGGCAAAACAATGCA-3'(SEQ ID NO:3), reverse: 5'-GGTCCTTTTCACCAGCAAGCT-3'(SEQ ID NO:4)), SDHA (forward: 5'-TGGGAACAAGAGGGCATCTG-3'(SEQ ID NO:5), reverse: 5'-CCACCACTGCATCAAATTCATG-3'(SEQ ID NO:6)), and PUMA (forward: 5'-CCTGGAGGGTCCTGTACAATCT-3'(SEQ ID NO:7), reverse: 5'-GCACCTAATTGGGCTCCATCT-3'(SEQ ID NO:8)). The primer for GADD45A was purchased from Qiagen, Hilden, Germany (QT00014084). The delta-delta-Ct method was used to calculate the relative expression, and normalization was performed to neuroblastoma specific housekeeping genes SDHA and HPRT (Fischer et al., J Mol Diagn 2005, 7, 89-96).
On the technique in general: In qPCR the cycle at which signal appears reflects the starting amount.

Data set [6] has as its system p53 target gene expression. Briefly: Real-time PCR of p53 pathway activation in SK-N-BE(2)-C. The format is cell-based. Conditions: SK-N-BE(2)-C (C135F), doxorubicin single treatment, 24 h. On the procedure: as §3
In data set [7] the test system is SK-N-AS. Description: Metabolic activity assay (CellTiter-Glo). It counts as cell-based. On the procedure:
as §1, with “HDAC-inhibitor screenings were performed accordingly in 384-well plates (Greiner, Microplate, 384-Well, PS, F-bottom µCLEAR®, CELLSTAR®) in 20 µl medium per well at a density of 1,250 (SK-N-BE(2)-C, SK-N-AS) or 2,500 (IMR-32) cells/well.” left out
All cell culture experiments were performed in triplicate. […] The packages tidyverse, janitor, readxl, writxl, ROCR, ggplot2 and ggsignif were used to calculate and plot the data. P-values of less than 0.05 were considered significant (^∗p < 0.05, ^∗∗p < 0.01, ^∗∗∗p < 0.001). IC50 values were calculated using GraphPad Prism Version 9.1.0 (GraphPad Software). Synergistic interactions were analyzed with SynergyFinder using the HSA (highest single agent) reference model, as the assumptions of other models were not fulfilled.

Data set [8] deals with Zebrafish embryo. Description: Zebrafish embryo drug toxicity assay. The format is in vivo. The settings on record: embryos 48 hpf, 34°C, imaged at 72 hpf and 120 hpf; APR-246 range 10-200 µM, Vorinostat range 2.5-100 µM. On the procedure: The toxicity of the compounds was assessed before performing in vivo experiments and a Maximum Tolerated Dose (MTD) was determined. Embryos (48 hpf) were transferred to 48-well uncoated plates (Corning) containing different concentrations of the compounds and a solvent control. The stock solution of the compounds was further dissolved in E3 buffer supplemented with 0.2mM 1-phenyl-2- thiourea (PTU, Sigma) in order to reach the desired concentrations. Three embryos were tested per concentration or solvent control. Embryos were kept at 34°C during the experiment and were imaged at 72 hpf and 120 hpf using a stereo microscope (Leica). The embryos were assessed for signs of toxicity, like death, morphology changes (curvature of body, edema) and behavioral changes. APR-246 concentration range tested: 10-200 µM, MTD: 50µM; solvent control: DMSO (0.2% and 0.5%); Vorinostat concentration range tested: 2.5-100 µM, no toxicity detected (MTD: 100µM); solvent control: DMSO (0.1%).

[9] abbreviates: Homo sapiens, HDAC inhibitor alone, 72 h, 384-well.
[10] abbreviates: HDAC inhibitor alone, 72 h, 384-well.

Here are results for five compounds from patent EP4134671A1, “METHYLENE QUINUCLIDINONE COMPANION DIAGNOSTICS” (Deutsches Krebsforschungszentrum Stiftung des öffentlichen …, priority 2021, dated 2023).

Regarding `COc1cccc2c1C(=O)c1c(O)c3c(c(O)c1C2=O)C[C@@](O)(C(=O)CO)C[C@@H]3O[C@H]1C[C@H](N)[C@H](O)[C@H](C)O1` [doxorubicin], the “doxorubicin sensitivity (metabolic activity)” value in data set [1] (IMR-32 (TP53-wt), fixed APR-246 concentration with different doses of doxorubicin) is recorded as “increased doxorubicin sensitivity”; in data set [2] (doxorubicin resistant TP53-mutant SK-B-BE(2)-C, fixed APR-246 concentration with different doses of doxorubicin) it was “increased doxorubicin sensitivity”. Also, the cell viability entry in data set [3] and in data set [4] was “decreased cell viability” in each case. Also, the “p53 target genes CDKN1A, PUMA and GADD45A expression” value in data set [5] is on record as “upregulation”. Moreover, the “p53 target gene expression” value in data set [6] is “failed to activate p53 target gene expression”.
For the compound `C/C=C1\NC(=O)[C@H]2CSSCC/C=C/[C@H](CC(=O)N[C@H](C(C)C)C(=O)N2)OC(=O)[C@H](C(C)C)NC1=O` [romidepsin], the IC50 (usually the point on the concentration scale where inhibition reaches its midpoint) in data set [7] (HDAC inhibitor + APR-246 20 µM) was determined as 1.8 nM; in data set [7] (setting [9]), 5.7 nM; in data set [1] (setting [9]) it was 0.73 nM; in data set [1] (HDAC inhibitor + APR-246 1 µM), 0.24 nM; in data set [2] (HDAC inhibitor + APR-246 10 µM), 9.9 nM; in data set [2] (setting [10]), 26.9 nM.
Consider `Cc1[nH]c2ccccc2c1CCNCc1ccc(/C=C/C(=O)NO)cc1` [panobinostat, (2E)-N-hydroxy-3-[4-({[2-(2-methyl-1H-indol-3-yl)ethyl]amino}methyl)phenyl]acrylamide], for which the IC50 was 1 nM in data set [7] (HDAC inhibitor + APR-246 20 µM); 2.2 nM in data set [7] (setting [9]); 35.6 nM in data set [1] (setting [9]); 13.9 nM in data set [1] (HDAC inhibitor + APR-246 2 µM); 3.1 nM in data set [2] (HDAC inhibitor + APR-246 20 µM); 40.2 nM in data set [2] (setting [10]).
For the compound `O=C(CCCCCCC(=O)Nc1ccccc1)NO` [vorinostat, N-Hydroxy-N'-phenyloctanediamide], in data set [7] (72 h co-treatment of vorinostat (0-10 µM) with APR-246 (0, 15, 30, 45 µM), SynergyFinder HSA model), the HSA synergy score is 12.17. In data set [8], the “Maximum Tolerated Dose (MTD)” value is reported as 100 µM.
On to `CN(C)Cc1c(C(=O)NCCOc2ccc(C(=O)NO)cc2)oc2ccccc12` [abexinostat, 3-[(Dimethylamino)methyl]-N-{2-[4-(hydroxycarbamoyl)phenoxy]ethyl}-1-benzofuran-2-carboxamide], for which the IC50 in data set [7] (HDAC inhibitor + APR-246 20 µM) was 15.4 nM; in data set [7] (setting [9]) it was 46.3 nM; in data set [1] (setting [9]) it was 100 nM; in data set [1] (HDAC inhibitor + APR-246 2 µM), 30.4 nM; in data set [2] (HDAC inhibitor + APR-246 10 µM) it was 37.5 nM; in data set [2] (setting [10]), 172 nM.
